Measurements reported in US8623859B2, “Bradykinin B1 antagonists” (Evotec AG, priority 2008, dated 2014).
pIC50: −log10 of the molar value. Structures can show the parent of a compound that is named as a salt.

Biological target: T1, human B1 (Homo sapiens, UniProt P46663)
T1 construct: host or cells: CHO-K1
T1 sequence (P46663 1-353): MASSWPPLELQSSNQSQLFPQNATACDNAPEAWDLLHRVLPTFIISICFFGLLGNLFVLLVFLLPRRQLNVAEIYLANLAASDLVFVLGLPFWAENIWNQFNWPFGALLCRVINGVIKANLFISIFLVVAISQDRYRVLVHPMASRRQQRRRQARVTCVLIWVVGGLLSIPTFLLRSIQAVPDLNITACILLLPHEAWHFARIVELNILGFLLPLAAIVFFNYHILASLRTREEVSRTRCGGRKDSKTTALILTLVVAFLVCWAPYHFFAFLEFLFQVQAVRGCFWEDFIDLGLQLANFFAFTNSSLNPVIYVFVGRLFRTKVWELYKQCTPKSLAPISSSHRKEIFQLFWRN
Assay: Calcium flux assay for Bradykinin B1 antagonist, CHO-K1 cell line expressing human B1
Assay type: cell-based
Conditions: CHO-K1 cells expressing human B1, agonist Lys-(Des-Arg)-Bradykinin, read-out: Potency (IC50 value against human B1)
In short: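 CHO-K1 cells expressing human B1, loaded with 5 μM Fluo-4AM (2 h, 37° C) in HEPES buffer pH 7.4 with probenecid and 0.1% BSA, were preincubated 30 min at 25° C with compound (8 concentrations, triplicate, 1% DMSO) before B1 agonist addition. Ca2+ fluorescence monitored at 538 nm; background-normalized integrated values plotted against log antagonist concentration.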

pIC50 | Structure (SMILES)
6.00 to 7.00 | COc1cc(C)c(S(=O)(=O)N(C)Cc2cc(C(=O)NCCc3ccc(C4=NCCN4)cc3)co2)c(CO)c1 [Ex 86, N-{2-[4-(4,5-Dihydro-1H-imidazol-2-yl)phenyl]ethyl}-5-{[{[2-(hydroxymethyl)-4-methoxy-6-methylphenyl]sulfonyl}(methyl)amino]methyl}furan-3-carboxamide trifluoroacetate]
6.00 to 7.00 | COc1cc(C)c(S(=O)(=O)N(C)Cc2nnc(C(=O)N3CCN(CC4CCN(CC(C)(C)O)CC4)CC3)o2)c(C)c1 [Ex 266, N-({5-[(4-{[1-(2-Hydroxy-2-methylpropyl)piperidin-4-yl]methyl}piperazin-1-yl)carbonyl]-1,3,4-oxadiazol-2-yl}methyl)-4-methoxy-N,2,6-trimethylbenzenesulfonamide]
7.00 to 8.00 | COc1cc(C)c(S(=O)(=O)N(Cc2nnc(C(=O)N3CCN(CCCN(C)C)CC3)o2)C2CC2)c(C)c1 [Ex 276, N-Cyclopropyl-N-{[5-({4-[3-(dimethylamino)propyl]piperazin-1-yl}carbonyl)-1,3,4-oxadiazol-2-yl]methyl}-4-methoxy-2,6-dimethylbenzenesulfonamide]
6.00 to 7.00 | COc1cc(C)c(S(=O)(=O)N(Cc2cc(C(=O)N3CCN(CCc4ccccn4)CC3)co2)C2CC2)c(C)c1 [Ex 114, N-Cyclopropyl-4-methoxy-2,6-dimethyl-N-[(4-{[4-(2-pyridin-2-ylethyl)piperazin-1-yl]carbonyl}furan-2-yl)methyl]benzenesulfonamide trifluoroacetate]
> 8.00 | COc1cc(C)c(S(=O)(=O)N(Cc2nc(C(=O)N3CCN(Cc4ccnc(C)c4)CC3)co2)C2CC2)c(C)c1 [Ex 252, N-Cyclopropyl-4-methoxy-2,6-dimethyl-N-{[4-({4-[(2-methylpyridin-4-yl)methyl]piperazin-1-yl}carbonyl)-1,3-oxazol-2-yl]methyl}benzenesulfonamide]
6.00 to 7.00 | COc1cc(C)c(S(=O)(=O)N(C)Cc2nc(C(=O)NCc3ccc(C4=NCCN4)cc3)co2)c(C)c1 [Ex 68, N-[4-(4,5-dihydro-1H-imidazol-2-yl)benzyl]-2-({[(4-methoxy-2,6-dimethylphenyl)sulfonyl](methyl)amino}methyl)-1,3-oxazole-4-carboxamide]
6.00 to 7.00 | COc1cc(C)c(S(=O)(=O)N(Cc2cc(C(=O)NCc3ccc(CN4CCCC4)c(F)c3)co2)C2CC2)c(C)c1 [Ex 154, 5-({Cyclopropyl[(4-methoxy-2,6-dimethylphenyl)sulfonyl]amino}methyl)-N-[3-fluoro-4-(pyrrolidin-1-ylmethyl)benzyl]furan-3-carboxamide trifluoroacetate]
> 8.00 | COc1cc(C)c(S(=O)(=O)N(Cc2nc(C(=O)N3CCN(Cc4ccc(OC)nc4)CC3)co2)C2CC2)c(C)c1 [Ex 235, N-Cyclopropyl-4-methoxy-N-{[4-({4-[(6-methoxypyridin-3-yl)methyl]piperazin-1-yl}carbonyl)-1,3-oxazol-2-yl]methyl}-2,6-dimethylbenzenesulfonamide trifluoroacetate]
7.00 to 8.00 | COc1cc(C)c(S(=O)(=O)N(Cc2cc(C(=O)N3CCN(CCN4CCCC4)CC3)co2)C2CC2)c(C)c1 [Ex 112, N-Cyclopropyl-4-methoxy-2,6-dimethyl-N-[(4-{[4-(2-pyrrolidin-1-ylethyl)piperazin-1-yl]carbonyl}furan-2-yl)methyl]benzenesulfonamide trifluoroacetate]
7.00 to 8.00 | COc1cc(C)c(S(=O)(=O)N(Cc2noc(C(=O)N3CCN(CC4CCCN(C)C4)CC3)n2)C2CC2)c(C)c1 (stereo not shown) [Ex 315, N-Cyclopropyl-4-methoxy-2,6-dimethyl-N-{[5-({4-[(1-methylpiperidin-3-yl)methyl]piperazin-1-yl}carbonyl)-1,2,4-oxadiazol-3-yl]methyl}benzenesulfonamide]
> 8.00 | COc1cc(C)c(S(=O)(=O)N(Cc2nc(C(=O)N3CCN(CCCCN(C)C)CC3)co2)C2CC2)c(C)c1 [Ex 204, N-Cyclopropyl-N-{[4-({4-[4-(dimethylamino)butyl]piperazin-1-yl}carbonyl)-1,3-oxazol-2-yl]methyl}-4-methoxy-2,6-dimethylbenzenesulfonamide trifluoroacetate]
6.00 to 7.00 | COc1cc(C)c(S(=O)(=O)N(C)Cc2nnc(C(=O)N3CCN(CC4CCN(C)CC4)CC3)s2)c(C)c1 [Ex 333, 4-Methoxy-N,2,6-trimethyl-N-{[5-({4-[(1-methylpiperidin-4-yl)methyl]piperazin-1-yl}carbonyl)-1,3,4-thiadiazol-2-yl]methyl}benzenesulfonamide]
6.00 to 7.00 | COc1cc(C)c(S(=O)(=O)N(Cc2nc(C(=O)N3CCN(Cc4cncn4C)CC3)co2)C2CC2)c(C)c1 [Ex 251, N-Cyclopropyl-4-methoxy-2,6-dimethyl-N-{[4-({4-[(1-methyl-1H-imidazol-5-yl)methyl]piperazin-1-yl}carbonyl)-1,3-oxazol-2-yl]methyl}benzenesulfonamide]
> 8.00 | COc1cc(C)c(S(=O)(=O)N(Cc2noc(C(=O)N3CCN(CC4CCN(C)CC4)CC3)n2)C2CC2)c(C)c1 [Ex 314, N-Cyclopropyl-4-methoxy-2,6-dimethyl-N-{[5-({4-[(1-methylpiperidin-4-yl)methyl]piperazin-1-yl}carbonyl)-1,2,4-oxadiazol-3-yl]methyl}benzenesulfonamide]
6.00 to 7.00 | COc1cc(C)c(S(=O)(=O)N(Cc2nc(C(=O)N3CC4CCN(C5CCN(C)CC5)CC4C3)co2)C2CC2)c(C)c1 (stereo not shown) [Ex 206, N-Cyclopropyl-4-methoxy-2,6-dimethyl-N-[(4-{[5-(1-methylpiperidin-4-yl)octahydro-2H-pyrrolo[3,4-c]pyridin-2-yl]carbonyl}-1,3-oxazol-2-yl)methyl]benzenesulfonamide trifluoroacetate]
7.00 to 8.00 | Cc1cccc(Cl)c1S(=O)(=O)N(Cc1nc(C(=O)N(C)CCc2ccc(C3=NCCN3)cc2)co1)C1CC1 [Ex 219, 2-({[(2-Chloro-6-methylphenyl)sulfonyl](cyclopropyl)amino}methyl)-N-{2-[4-(4,5-dihydro-1H-imidazol-2-yl)phenyl]ethyl}-N-methyl-1,3-oxazole-4-carboxamide trifluoroacetate]
7.00 to 8.00 | COc1cc(C)c(S(=O)(=O)N(Cc2nnc(C(=O)N3CCN(CC4CCCN(C)C4)CC3)o2)C2CC2)c(C)c1 (stereo not shown) [Ex 275, N-Cyclopropyl-4-methoxy-2,6-dimethyl-N-{[5-({4-[(1-methylpiperidin-3-yl)methyl]piperazin-1-yl}carbonyl)-1,3,4-oxadiazol-2-yl]methyl}benzenesulfonamide]
6.00 to 7.00 | CCN(Cc1cc(C(=O)N(C)Cc2ccc(CN3CCCC3)cc2)co1)S(=O)(=O)c1c(C)cc(OC)cc1C [Ex 102, 5-({Ethyl[(4-methoxy-2,6-dimethylphenyl)sulfonyl]amino}methyl)-N-methyl-N-[4-(pyrrolidin-1-ylmethyl)benzyl]furan-3-carboxamide trifluoroacetate]
7.00 to 8.00 | COc1cc(C)c(S(=O)(=O)N(Cc2cc(C(=O)N(C)Cc3ccc(C4=NCCN4)cc3)co2)C2CC2)c(C)c1 [Ex 83, 5-({cyclopropyl[(4-methoxy-2,6-dimethylphenyl)sulfonyl]amino}methyl)-N-[4-(4,5-dihydro-1H-imidazol-2-yl)benzyl]-N-methylfuran-3-carboxamide trifluoroacetate]
6.00 to 7.00 | COc1cc(C)c(S(=O)(=O)N(C)Cc2nc(C(=O)N(C)Cc3ccc(C[N+]4([O-])CCCC4)cc3)co2)c(C)c1 [Ex 159, 2-({[(4-Methoxy-2,6-dimethylphenyl)sulfonyl](methyl)amino}methyl)-N-methyl-N-{4-[(1-oxidopyrrolidin-1-yl)methyl]benzyl}-1,3-oxazole-4-carboxamide trifluoroacetate]
> 8.00 | COc1cc(C)c(S(=O)(=O)N(Cc2nnc(C(=O)N3CCN(CC4CCN(C)CC4)CC3)s2)C2CC2)c(C)c1 [Ex 335, N-Cyclopropyl-4-methoxy-2,6-dimethyl-N-{[5-({4-[(1-methylpiperidin-4-yl)methyl]piperazin-1-yl}carbonyl)-1,3,4-thiadiazol-2-yl]methyl}benzenesulfonamide]
> 8.00 | COc1cc(C)c(S(=O)(=O)N(C)Cc2cc(C(=O)N3CCCC(c4ccc(C5=NCCN5)cc4)C3)co2)c(C)c1 (stereo not shown) [Ex 30, N-{[4-({3-[4-(4,5-dihydro-1H-imidazol-2-yl)phenyl]piperidin-1-yl}carbonyl)furan-2-yl]methyl}-4-methoxy-N,2,6-trimethylbenzenesulfonamide]
> 8.00 | COc1cc(C)c(S(=O)(=O)N(C)Cc2noc(C(=O)N3CCC(CCN4CCCC4)CC3)n2)c(C)c1 [Ex 310, 4-Methoxy-N,2,6-trimethyl-N-[(5-{[4-(2-pyrrolidin-1-ylethyl)piperidin-1-yl]carbonyl}-1,2,4-oxadiazol-3-yl)methyl]benzenesulfonamide]
> 8.00 | COc1cc(C)c(S(=O)(=O)N(Cc2nc(C(=O)N3CCN(CC4CCNCC4)CC3)co2)C2CC2)c(C)c1 [Ex 230, N-Cyclopropyl-4-methoxy-2,6-dimethyl-N-[(4-{[4-(piperidin-4-ylmethyl)piperazin-1-yl]carbonyl}-1,3-oxazol-2-yl)methyl]benzenesulfonamide trifluoroacetate]
7.00 to 8.00 | COc1cc(C)c(S(=O)(=O)N(C)Cc2nnc(C(=O)N(C)Cc3ccc(CN4CCC(OC)CC4)cc3)o2)c(C)c1 [Ex 283, 5-({[(4-Methoxy-2,6-dimethylphenyl)sulfonyl](methyl)amino}methyl)-N-{4-[(4-methoxypiperidin-1-yl)methyl]benzyl}-N-methyl-1,3,4-oxadiazole-2-carboxamide]
